According to patent publication US20150265644A1, “THERAPEUTIC METHODS AND COMPOSITIONS FOR TREATING DIABETES UTILIZING DITERPENOID COMPOUNDS” (Orient Europharma Co., Ltd., priority 2014, published 2015):

Assays:
[1] = system: C2C12 skeletal muscle cells; assay: Glycogen content assay in differentiated C2C12 myotubes; assay type: cell-based; settings: 30 minutes
Method: (§1) The C2C12 skeletal muscle cells were cultured in Dulbecco's modified Eagle's medium (DMEM; Gibco/Invitrogen, Carlsbad, Calif.), and the human hepatocellular carcinoma cell line, Hl-ep3B, was cultured in Roswell Park Memorial Institute medium 1640 (RPMI 1640 medium; Gibco/Invitrogen, Carlsbad, Calif.). Cells were cultured at 37° C. in the humidified incubator supplied with 5% CO2. Culture mediums were supplemented with 4.5 mgmL^−1 glucose, penicillin 100 IUmL^−1, streptomycin 100 μgmL^−1 and 10% fetal bovine serum (Gibco/Invitrogen, Carlsbad, Calif.). Only C2C12 cells were then switched to 2% horse serum for 3 days after reaching the 70% confluence. Myotubes formation was achieved after 4 days of incubation, and the cells were used for subsequent experiments. Culture mediums were replaced by serum free DMEM or RPMI for 24 h before experiments (see e.g., procedure described in Sultan et al., 2006).
(§2) C2C12 and Hep3B cells were treated with 1 nM insulin, 100 μM metformin, and the assigned concentration of borapetoside A for 30 minutes. To develop the insulin resistance state of cells, C2C12 cells were incubated with IL-6 at 20 ngmL^−1 for 1 hour. Later, the cells were treated with 1 nM insulin, 100 μM metformin, and the assigned concentration of borapetoside A for 30 minutes. After the assigned treatment, cells were washed twice with phosphate buffered saline (PBS). Glycogen content was measured as previously described, with some modifications (see e.g., Savage et al., 2008). The protein concentrations of the cell lysates were determined by using Pierce BCA Protein Assay Kit (Thermo-Scientific, Rockford, Ill.). The glycogen content of each sample was normalized by total protein.

[2] = system: IL-6-treated C2C12 cells; assay: Glycogen content assay in IL-6-induced insulin resistant C2C12 cells; assay type: cell-based; settings: 30 minutes
Method: as §1, §2

[3] = Intraperitoneal glucose tolerance test; assay type: in vivo, mice
Method: After three days of acclimatization, the mice had free access to a standard rodent chow (normal mice), a standard rodent chow after single 250 mgkg^−1 streptozotocin (STZ) intraperitoneal injection (TIDM mice), and a fat-rich chow diet and fructose-sweetened water (T2DM mice) for 4 weeks. The induction of Type 1 DM was assessed and confirmed when the mice had plasma glucose levels ≧350 mgdL^−1, accompanied with polyuria, hyperphagia and decreased body weight. The induction Type 2 DM in the mice was assessed by measuring fasting plasma glucose levels and confirmed when plasma glucose level was ≧150 mgdL^−1 after the 4-week induction. The animals were assigned randomly into three groups, with seven animals in each group. In group I, the mice were treated with vehicle, 2% DMSO in normal saline, as the negative control. In group II, the mice were intraperitoneally treated with borapetoside A (0.1-10 mgkg^−1). In […], the mice received intraperitoneally metformin (300 mgkg^−1; Sigma Chemical Co., St. Louis, Mo., U.S.A.) or insulin (0.5 IUkg^−1; Insulin Actrapid® HM; Novo Nordisk, Denmark). In the acute study, mice under anesthesia received a single intraperitoneal administration of borapetoside A, negative control, or positive control. In the subacute study, mice received intraperitoneal administrations of borapetoside A, vehicle, or insulin twice a day for seven days.
Blood samples were collected from the orbital vascular plexus of the mice under anesthesia. Blood samples were then centrifuged at 13000 rpm for 5 min, and the plasma samples were collected and kept on ice prior to the assay. The plasma glucose concentration was measured by Glucose Kit Reagent (Biosystems S.A., Barcelona, Spain) following the manufacturer's instructions, and the insulin levels were estimated using mouse insulin ELISA kit (Mercodia AB, Uppsala, Sweden).
The mice were maintained under anesthesia throughout the procedure. Glucose (2.0 gkg^−1) was administered intraperitoneally. Blood samples were collected from the orbital vascular plexus at 0, 30, 60, 120 min. The concentrations of the plasma glucose were measured, and the values of AUC were calculated accordingly.

[4] = system: liver; assay: Glycogen content in liver in vivo; design: species or system mice; settings: 10 mgkg^−1 i.p., 60 minutes
Method: The mice were injected with borapetoside A (10 mgkg^−1, interperitoneal) for 60 minutes or insulin (0.5 IUkg^−1, interperitoneal) for 30 minutes. After the treatment, the anesthetic mice were sacrificed by cervical dislocation to collect the soleus muscle and liver. About 40 mg of each sample was dissolved in 1 mol/L KOH at 75° C. for 30 min. The dissolved homogenate was neutralized by glacial acetic acid and then incubated overnight in acetate buffer (0.3 mol/L sodium acetate, pH 4.8) containing amyloglucosidase (Sigma, St. Louis, Mo.). The mixture was then neutralized with 1 mol/L NaOH to stop the reaction. The glycogen contents in the tissue samples were determined as μg of glucose per mg of tissue (wet weight).

[5] = system: phospho-insulin receptor β (IRβ) (Tyr^1345); assay: Western blot of liver, phospho-insulin receptor; assay type: in vivo; settings: mice with type 1 DM, 10 mgkg^−1 i.p. twice a day for 7 days
Method: (§3) After three days of acclimatization, the mice had free access to a standard rodent chow (normal mice), a standard rodent chow after single 250 mgkg^−1 streptozotocin (STZ) intraperitoneal injection (TIDM mice), and a fat-rich chow diet and fructose-sweetened water (T2DM mice) for 4 weeks. The induction of Type 1 DM was assessed and confirmed when the mice had plasma glucose levels ≧350 mgdL^−1, accompanied with polyuria, hyperphagia and decreased body weight. The induction Type 2 DM in the mice was assessed by measuring fasting plasma glucose levels and confirmed when plasma glucose level was ≧150 mgdL^−1 after the 4-week induction. […]
(§4) Western blot analysis was carried out by known methods with a slight modification. […] After centrifuging the homogenates at 10,000 g for 30 minutes, the protein concentrations were determined by using a BCA Protein Assay Kit (Pierce Biotechnology, Rockford, Ill.). […] The membranes were analysed by using the antibodies against phospho-insulin receptor β (IRβ) (Tyr^1345), phospho-Akt (Ser^473), phosphor-AS160 (Thr^642), AS160 (Cell Signaling Technology, Beverly, Mass.), IRβ, Akt, β-Actin (Santa Cruz Biotechnology, Santa Cruz, Calif.), GLUT2 (Abcam, Cambridge, UK), and PEPCK (a gift from Professor D K Granner), respectively. […] The intensity of each band was quantified with ImageQuant.

[6] = system: phosphor-AS160 (Thr^642); assay: Western blot of liver, phospho-AS160; assay type: in vivo; settings: mice with type 1 DM, 10 mgkg^−1 i.p. twice a day for 7 days
Method: as §3, §4

[7] = system: GLUT2; assay: Western blot of liver, GLUT2 expression; assay type: in vivo; settings: mice with type 1 DM, 10 mgkg^−1 i.p. twice a day for 7 days
Method: as §3, §4

[8] = system: PEPCK; assay: Western blot of liver, PEPCK expression; assay type: in vivo; settings: mice with type 1 DM, 10 mgkg^−1 i.p. twice a day for 7 days
Method: as §3, §4

In the case of C[C@@]12C[C@@H](c3ccoc3)OC(=O)[C@@H]1C[C@@H]1OC(=O)[C@@]3(O)[C@@H](O[C@@H]4O[C@H](CO)[C@@H](O)[C@H](O)[C@H]4O)CC[C@@H]2[C@@]13C [borapetoside A], the “fold increase of glycogen” value ([1]; 10^−6 mol/L) is reported as 1.49±0.15 fold, the “fold increase of glycogen” value ([1]; 10^−7 mol/L) is reported as 1.28±0.04 fold and the “fold increase of glycogen” value [1] is reported as 1.53±0.10 fold. For the same compound, the “fold increase of glycogen content” value ([2]; IL-6-treated C2C12, 10^−6 mol/L) was 1.64±0.05 fold, the “fold increase of glycogen content” value ([2]; IL-6-treated C2C12, 10^−7 mol/L) was 1.38±0.06 fold and the “fold increase of glycogen content” value ([2]; IL-6-treated C2C12, 10^−8 mol/L) was 1.35±0.08 fold. For the same compound, the “increase of plasma glucose level at 30 min” value ([3]; 0.1, 1, and 10 mgkg^−1, compared to the vehicle group, normal and type 2 DM mice) was “significantly suppressed”, the “area under the curve (AUC) of plasma glucose, % of vehicle control” value (“area under the curve … % of vehicle control” below) ([3]; normal mice, 0.1 mgkg^−1) was 78.8±3.0% and the “area under the curve … % of vehicle control” value ([3]; normal mice, 1 mgkg^−1) was 69.9±7.1%. For the same compound, the “area under the curve … % of vehicle control” value ([3]; normal mice, 10 mgkg^−1) was 68.91±3.5%, the “area under the curve … % of vehicle control” value ([3]; type 2 DM bearing mice, 0.1 mgkg^−1) was 74.9±4.5% and the “area under the curve … % of vehicle control” value ([3]; type 2 DM bearing mice, 1 mgkg^−1) was 71.1±3.2%. For the same compound, the “area under the curve … % of vehicle control” value ([3]; type 2 DM bearing mice, 10 mgkg^−1) was 68.9±1.9%, the “glycogen content in liver, % of vehicle control” value (“glycogen content in liver, %” for short) ([4]; mice with type 1 DM) was 196.9±15.6% and the “glycogen content in liver, %” value ([4]; mice with type 2 DM) was 146.1±12.0%. For the same compound, the “glycogen content in liver, %” value ([4]; normal mice) was 257.8±15.8%, the “phosphorylated IR in liver” value [5] was “increased” and the “phosphorylated AS160 in liver” value [6] was “increased”. The “expression of GLUT2 in liver” value [7] was “increased” and the “PEPCK expression in liver” value [8] was “significant decrease”.
